For test [1], the system named is A431cells (human epidermoid carcinoma). Put plainly: In vitro tumor cell proliferation assay (Cell Titer-Glo luminescent cell viability), A431 cells. Format: cell-based. The note with it: A-431, 72 h, 72 hours drug exposure, 10% Fetal Bovine Serum, ATP luminescence readout, read-out: IC50 (50% inhibition of cell proliferation). The method, boiled down:
(§1)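 ATP luminescence (CellTiter-Glo) measured proliferation after 72 h compound exposure at 37 °C, giving IC50 values. Serial dilutions spanning 64 pM–100 μM in 0.1% DMSO were applied one day after plating 2.5×10^3 cells/well in RPMI plus 10% fetal bovine serum.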

In test [2] the test system is BT474 (human breast carcinoma). Put plainly: In vitro tumor cell proliferation assay (Cell Titer-Glo luminescent cell viability), BT474 cells. Format: cell-based. The note with it: BT-474, 72 hours drug exposure, 10% Fetal Bovine Serum, ATP luminescence readout, read-out: IC50 (50% inhibition of cell proliferation). The method, boiled down:
as §1

For `CN1CCN(CC2CCc3c(sc4ncnc(Nc5ccc(F)c(Cl)c5)c34)C2)CC1` (stereo not drawn) [Example 15, N-(3-chloro-4-fluorophenyl)-7-[(4-methyl-1-piperazinyl)methyl]-5,6,7,8-tetrahydro[1]benzothieno[2,3-d]pyrimidin-4-amine], the IC50 in test [1] and in test [2] was under 5 µM in each case.

For the compound `Fc1ccc(Nc2ncnc3sc4c(c23)CCC(CN2CCCCC2)C4)cc1Cl` (stereo not drawn) [Example 4, N-(3-chloro-4-fluorophenyl)-7-(1-piperidinylmethyl)-5,6,7,8-tetrahydro[1]benzothieno[2,3-d]pyrimidin-4-amine], the IC50 in test [1] and in test [2] was under 5 µM in each case.

On to `CCOC(=O)C1CCc2c(sc3ncnc(Nc4ccc(F)c(Cl)c4)c23)C1` (stereo not drawn) [Example 24, ethyl 4-[(3-chloro-4-fluorophenyl)amino]-5,6,7,8-tetrahydro[1]benzothieno[2,3-d]pyrimidine-7-carboxylate], for which the IC50 in test [1] and in test [2] was under 50 µM each time.

In the case of `Fc1cccc(COc2ccc(Nc3ncnc4sc5c(c34)CCC(CCn3ccnc3)C5)cc2Cl)c1` (stereo not drawn) [Example 170, N-{3-chloro-4-[(3-fluorobenzyl)oxy]phenyl}-7-[2-(1H-imidazol-1-yl)ethyl]-5,6,7,8-tetrahydro[1]benzothieno[2,3-d]pyrimidin-4-amine], the IC50 in test [1] and in test [2] was under 5 µM in each case.

As to `OCCN(CCO)CCC1CCc2c(sc3ncnc(Nc4ccc(OCc5cccc(F)c5)c(Cl)c4)c23)C1` (stereo not drawn) [Example 165, 2,2′-({2-[4-({3-chloro-4-[(3-fluorobenzyl)oxy]phenyl}amino)-5,6,7,8-tetrahydro[1]benzothieno[2,3-d]pyrimidin-7-yl]ethyl}imino)diethanol], the IC50 in test [1] and in test [2] was under 5 µM each time.

`CCOC(=O)C1CCc2c(sc3ncnc(Nc4ccc(C)c(O)c4)c23)C1` (stereo not drawn) [Example 39, Ethyl 4-[(3-hydroxy-4-methylphenyl)amino]-5,6,7,8-tetrahydro[1]benzothieno[2,3-d]pyrimidine-7-carboxylate]: the IC50 in test [1] was under 50 µM; in test [2], under 5 µM.

Take `O=C(O)C1CCc2c(sc3ncnc(Nc4cccc(Br)c4)c23)C1` (stereo not drawn) [Example 1, 4-[(3-bromophenyl)amino]-5,6,7,8-tetrahydro[1]benzothieno[2,3-d]pyrimidine-7-carboxylic acid]: the IC50 in test [1] and in test [2] was under 50 µM in each case.

Turning to `Cc1ccc(Oc2ccc(Nc3ncnc4sc5c(c34)CCC(CCN(CCO)CCO)C5)cc2C)cn1` (stereo not drawn) [Example 231, 2,2′-({2-[4-({3-methyl-4-[(6-methylpyridin-3-yl)oxy]phenyl}amino)-5,6,7,8-tetrahydro[1]benzothieno[2,3-d]pyrimidin-7-yl]ethyl}imino)diethanol], the IC50 is under 50 µM in test [1] and under 5 µM in test [2].

On to `CN(C)[C@H]1CCN(C(=O)CC2CCc3c(sc4ncnc(Nc5ccc(OCc6ccc(F)cc6)c(Cl)c5)c34)C2)C1` (stereo partly drawn) [Example 148, N-{3-chloro-4-[(4-fluorobenzyl)oxy]phenyl}-7-{2-[(3S)-3-(dimethylamino)pyrrolidin-1-yl]-2-oxoethyl}-5,6,7,8-tetrahydro[1]benzothieno[2,3-d]pyrimidin-4-amine], for which the IC50 in test [1] and in test [2] was under 5 µM throughout.

On to `O=C(O)CC1CCc2c(sc3ncnc(Nc4ccc(F)c(Cl)c4)c23)C1` (stereo not drawn) [Example 72], for which the IC50 in test [1] was under 5 µM; in test [2] it was under 50 µM.

`Fc1ccc(Nc2ncnc3sc4c(c23)CCC(CN2CCOCC2)C4)cc1Cl` (stereo not drawn) [Example 12, N-(3-chloro-4-fluorophenyl)-7-(4-morpholinylmethyl)-5,6,7,8-tetrahydro[1]benzothieno[2,3-d]pyrimidin-4-amine]: the IC50 in test [1] and in test [2] was under 50 µM each time.

In the case of `CCOC(=O)CC1CCc2c(sc3ncnc(Nc4ccc(OCc5ccccn5)c(Cl)c4)c23)C1` (stereo not drawn) [Example 173, {4-[3-Chloro-4-(pyridin-2-ylmethoxy)-phenylamino]-5,6,7,8-tetrahydro-benzo[4,5]thieno[2,3-d]pyrimidin-7-yl}-acetic acid ethyl ester], the IC50 in test [1] was under 50 µM; in test [2], under 5 µM.

Regarding `CN1CCN(C(=O)CC2CCc3c(sc4ncnc(Nc5cccc(Br)c5)c34)C2)CC1` (stereo not drawn) [Example 68, N-(3-bromophenyl)-7-[2-(4-methyl-1-piperazinyl)-2-oxoethyl]-5,6,7,8-tetrahydro[1]benzothieno[2,3-d]pyrimidin-4-amine], the IC50 in test [1] and in test [2] was under 50 µM each time.

As to `CN(C)[C@@H]1CCN(CCC2CCc3c(sc4ncnc(Nc5ccc(OCc6ccccn6)c(Cl)c5)c34)C2)C1` (stereo partly drawn) [Example 181, N-[3-chloro-4-(pyridin-2-ylmethoxy)phenyl]-7-{2-[(3R)-3-(dimethylamino)pyrrolidin-1-yl]ethyl}-5,6,7,8-tetrahydro[1]benzothieno[2,3-d]pyrimidin-4-amine], the figures for the IC50 in test [1] and in test [2] were under 50 µM and under 5 µM, respectively.

With `O=C(CC1CCc2c(sc3ncnc(Nc4ccc(OCc5ccc(F)cc5)c(Cl)c4)c23)C1)N1CCCC1` (stereo not drawn) [Example 149, N-{3-chloro-4-[(4-fluorobenzyl)oxy]phenyl}-7-(2-oxo-2-pyrrolidin-1-ylethyl)-5,6,7,8-tetrahydro[1]benzothieno[2,3-d]pyrimidin-4-amine], the IC50 in test [1] and in test [2] was under 50 µM in each case.

`CN1CCN(C(=O)CC2CCc3c(sc4ncnc(Nc5ccc(OCc6ccc(F)cc6)c(Cl)c5)c34)C2)CC1` (stereo not drawn) [Example 150, N-{3-chloro-4-[(4-fluorobenzyl)oxy]phenyl}-7-[2-(4-methylpiperazin-1-yl)-2-oxoethyl]-5,6,7,8-tetrahydro[1]benzothieno[2,3-d]pyrimidin-4-amine]: the IC50 in test [1] and in test [2] was under 5 µM throughout.

For the compound `COC[C@H]1CCCN1CCC1CCc2c(sc3ncnc(Nc4ccc(OCc5cccc(F)c5)c(Cl)c4)c23)C1` (stereo partly drawn) [Example 198, N-{3-chloro-4-[(3-fluorobenzyl)oxy]phenyl}-7-{2-[(2R)-2-(methoxymethyl)pyrrolidin-1-yl]ethyl}-5,6,7,8-tetrahydro[1]benzothieno[2,3-d]pyrimidin-4-amine], the IC50 in test [1] and in test [2] was under 5 µM throughout.

Take `CN1CCN(C(=O)CC2CCc3c(sc4ncnc(Nc5ccc(Br)cc5F)c34)C2)CC1` (stereo not drawn) [Example 105, N-(4-bromo-2-fluorophenyl)-7-[2-(4-methyl-1-piperazinyl)-2-oxoethyl]-5,6,7,8-tetrahydro[1]benzothieno[2,3-d]pyrimidin-4-amine]: the IC50 in test [1] and in test [2] was under 5 µM throughout.

With `CN(C)CCC1CCc2c(sc3ncnc(Nc4ccc(OCc5cccc(F)c5)c(Cl)c4)c23)C1` (stereo not drawn) [Example 164, N-{3-chloro-4-[(3-fluorobenzyl)oxy]phenyl}-7-[2-(dimethylamino)ethyl]-5,6,7,8-tetrahydro[1]benzothieno[2,3-d]pyrimidin-4-amine], the IC50 in test [1] and in test [2] was under 5 µM in each case.

In the case of `COCCN(C)CCC1CCc2c(sc3ncnc(Nc4ccc(F)c(Cl)c4)c23)C1` (stereo not drawn) [Example 96, N-(3-chloro-4-fluorophenyl)-7-{2-[(2-methoxyethyl)(methyl)amino]ethyl}-5,6,7,8-tetrahydro[1]benzothieno[2,3-d]pyrimidin-4-amine], the IC50 in test [1] and in test [2] was under 5 µM each time.

As for `O=C(CC1CCc2c(sc3ncnc(Nc4cccc(Br)c4)c23)C1)N1CCCC1` (stereo not drawn) [Example 81, N-(3-bromophenyl)-7-[2-oxo-2-(1-pyrrolidinyl)ethyl]-5,6,7,8-tetrahydro[1]benzothieno[2,3-d]pyrimidin-4-amine], the IC50 in test [1] and in test [2] was under 50 µM in each case.

For `CN(C)[C@H]1CCN(CCC2CCc3c(sc4ncnc(Nc5ccc(OCc6ccccn6)c(Cl)c5)c34)C2)C1` (stereo partly drawn) [Example 141, N-[3-chloro-4-(pyridin-2-ylmethoxy)phenyl]-7-{2-[(3S)-3-(dimethylamino)pyrrolidin-1-yl]ethyl}-5,6,7,8-tetrahydro[1]benzothieno[2,3-d]pyrimidin-4-amine], the IC50 in test [1] and in test [2] was under 5 µM each time.

For `CCOC(=O)CC1CCc2c(sc3ncnc(Nc4ccc(F)c(Cl)c4)c23)C1` (stereo not drawn) [Example 57, ethyl {4-[(3-chloro-4-fluorophenyl)amino]-5,6,7,8-tetrahydro[1]benzothieno[2,3-d]pyrimidin-7-yl}acetate], the IC50 in test [1] and in test [2] was under 50 µM in each case.

Take `Clc1cc(Nc2ncnc3sc4c(c23)CCC(CCN2CCCCC2)C4)ccc1OCc1ccccn1` (stereo not drawn) [Example 191, N-[3-chloro-4-(pyridin-2-ylmethoxy)phenyl]-7-(2-piperidin-1-ylethyl)-5,6,7,8-tetrahydro[1]benzothieno[2,3-d]pyrimidin-4-amine]: the IC50 in test [1] and in test [2] was under 5 µM in each case.

Regarding `COCCNC(=O)CC1CCc2c(sc3ncnc(Nc4ccc(F)c(Cl)c4)c23)C1` (stereo not drawn) [Example 62, 2-{4-[(3-chloro-4-fluorophenyl)amino]-5,6,7,8-tetrahydro[1]benzothieno[2,3-d]pyrimidin-7-yl}-N-(2-methoxyethyl)acetamide], the IC50 in test [1] and in test [2] was under 5 µM in each case.

With `CCOC(=O)C1CCc2c(sc3ncnc(Nc4ccc(OCc5ccccc5)cc4)c23)C1` (stereo not drawn) [Example 32, Ethyl 4-{[4-(benzyloxy)phenyl]amino}-5,6,7,8-tetrahydro[1]benzothieno[2,3-d]pyrimidine-7-carboxylate], the IC50 in test [1] and in test [2] was under 50 µM each time.

Consider `CS(=O)(=O)CCNC(=O)C1CCc2c(sc3ncnc(Nc4ccc(F)c(Cl)c4)c23)C1` (stereo not drawn) [Example 52, 4-[(3-chloro-4-fluorophenyl)amino]-N-[2-(methylsulfonyl)ethyl]-5,6,7,8-tetrahydro[1]benzothieno[2,3-d]pyrimidine-7-carboxamide], for which the IC50 in test [1] and in test [2] was under 50 µM each time.
